Holding throughout (format): cell-based
Experiment [1] deals with Met (Homo sapiens (Human), UniProt P08581). Kind of experiment: Met autophosphorylation ELISA in PC-3 cells. The conditions noted are these: cellular, HGF stimulated, read-out: c-Met IC50. The procedure: PC-3 prostate cancer cells (ATCC #CRL-1435) were seeded at 4×10^4 cells/well onto 24-well plates (Greiner #662165), in DMEM (Thermo Fisher #11995-040) containing 10% FBS (Thermo Fisher #26140-079), 1% MEM NEAA (Thermo Fisher #11140-050), 1% GlutaMax (Thermo Fisher #35050-061), and 1% Penicillin Streptomycin (Thermo Fisher #15140-122). PC-3 cells were incubated at 37° C., 5% CO2 for 24 h and then starved for 3 h in serum-free medium. Test compounds were serially diluted to produce an 8-point dose curve in fresh serum-free medium to a final concentration of 0.3% DMSO (vehicle) and added to the cells and incubated for 1 h. Cells were then stimulated with 100 ng/mL recombinant human HGF (R&D Systems #294-HG-250) for 10 min, washed with cold PBS and immediately lysed with 130 μL of cold 1× lysis buffer [20 mM Tris, 137 mM sodium chloride, 2 mM EDTA, 10% glycerol, 1% NP-40 alternative, 1 mM activated sodium orthovanadate, 1 mM PefaBloc SC (Sigma-Aldrich #11429868001), protease/phosphatase inhibitor tablet (Thermo Fisher #A32959)]. Lysates were clarified by centrifugation and 100 μL/well added into the PathScan phospho-Met (panTyr) Sandwich ELISA (Cell Signaling Technology #7333). Assay was performed according to manufacturer's instructions. Positive control wells (100% activity) contained HGF-stimulated, DMSO-treated cell lysates. Negative control wells (0% activity) contained HGF-stimulated, reference inhibitor-treated cell lysates. IC50 values were calculated by nonlinear regression analysis using a 4-parameter logistic curve fit in ActivityBase XE (IDBS).
Met, sequence (P08581 25-1390): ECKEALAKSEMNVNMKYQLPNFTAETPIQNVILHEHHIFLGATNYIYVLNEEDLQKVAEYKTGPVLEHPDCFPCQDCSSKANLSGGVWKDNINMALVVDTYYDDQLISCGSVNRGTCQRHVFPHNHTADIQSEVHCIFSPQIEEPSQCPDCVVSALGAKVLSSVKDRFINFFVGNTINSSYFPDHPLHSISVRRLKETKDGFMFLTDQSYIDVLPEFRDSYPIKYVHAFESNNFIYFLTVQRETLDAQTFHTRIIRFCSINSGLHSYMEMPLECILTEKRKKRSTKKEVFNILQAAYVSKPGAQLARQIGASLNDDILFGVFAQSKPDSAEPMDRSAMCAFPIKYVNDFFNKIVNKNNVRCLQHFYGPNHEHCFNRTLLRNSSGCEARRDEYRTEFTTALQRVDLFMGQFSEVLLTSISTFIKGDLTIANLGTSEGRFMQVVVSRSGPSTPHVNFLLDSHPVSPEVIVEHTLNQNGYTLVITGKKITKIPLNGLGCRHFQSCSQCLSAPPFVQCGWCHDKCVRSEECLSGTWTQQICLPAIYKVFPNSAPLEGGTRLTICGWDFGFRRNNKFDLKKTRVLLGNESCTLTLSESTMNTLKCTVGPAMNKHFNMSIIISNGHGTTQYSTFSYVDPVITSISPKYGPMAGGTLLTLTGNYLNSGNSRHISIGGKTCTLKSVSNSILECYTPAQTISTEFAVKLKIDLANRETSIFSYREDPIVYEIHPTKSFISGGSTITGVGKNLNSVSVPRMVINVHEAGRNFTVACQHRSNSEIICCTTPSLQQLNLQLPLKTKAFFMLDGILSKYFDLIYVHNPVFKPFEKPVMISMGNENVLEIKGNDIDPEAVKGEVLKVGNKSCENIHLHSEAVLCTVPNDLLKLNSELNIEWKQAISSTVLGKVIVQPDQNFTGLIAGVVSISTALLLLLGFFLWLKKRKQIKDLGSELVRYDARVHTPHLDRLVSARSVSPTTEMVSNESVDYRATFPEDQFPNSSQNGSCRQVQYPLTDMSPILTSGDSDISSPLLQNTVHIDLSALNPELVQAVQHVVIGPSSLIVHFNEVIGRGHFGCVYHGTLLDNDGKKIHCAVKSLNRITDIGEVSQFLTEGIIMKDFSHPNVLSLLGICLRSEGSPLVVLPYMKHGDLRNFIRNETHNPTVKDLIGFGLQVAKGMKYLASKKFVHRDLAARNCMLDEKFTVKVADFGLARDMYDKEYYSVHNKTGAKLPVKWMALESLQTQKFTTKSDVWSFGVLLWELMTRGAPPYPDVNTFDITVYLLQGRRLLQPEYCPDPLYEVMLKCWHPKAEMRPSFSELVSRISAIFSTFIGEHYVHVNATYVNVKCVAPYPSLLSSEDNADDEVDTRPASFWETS

The target in experiment [2] is AXL (Homo sapiens (Human), UniProt P30530). The experiment can be described thus: AXL autophosphorylation ELISA in A-172 cells. Conditions: cellular, Gas6 stimulated. The procedure:
A-172 glioblastoma cells (ATCC #CRL-1620) were seeded at 2.5×10^5 cells/well onto 24-well plates (Greiner #662165), in DMEM (Thermo Fisher #11995-040) containing 10% FBS (Thermo Fisher #26140-079), 1% MEM NEAA (Thermo Fisher #11140-050), 1% GlutaMax (Thermo Fisher #35050-061) and 1% Penicillin Streptomycin (Thermo Fisher #15140-122). A-172 cells were incubated at 37° C., 5% CO2 for 24 h and then starved for 24 h in serum-free medium. Test compounds were serially diluted to produce an 8-point dose curve in fresh serum-free medium to a final concentration of 0.3% DMSO (vehicle) and added to the cells and incubated for 1 h. Cells were then stimulated with 1 μg/mL recombinant human Gas6 (R&D Systems #885-GSB-500) for 15 min, washed with cold PBS and immediately lysed with 150 μL of cold 1× lysis buffer [20 mM Tris, 137 mM sodium chloride, 2 mM EDTA, 10% glycerol, 1% NP-40 alternative, 1 mM activated sodium orthovanadate, 1 mM PefaBloc SC (Sigma-Aldrich #11429868001), protease/phosphatase inhibitor tablet (Thermo Fisher #A32959)]. Lysates were collected and 100 μL/well added into the human phospho-AXL DuoSet IC ELISA (R&D Systems #DYC2228-2). Assay was performed according to manufacturer's instructions and sample phospho-AXL concentrations were extrapolated using human phospho-AXL control (R&D Systems #841645) as a standard. Positive control wells (100% activity) contained Gash-stimulated, DMSO-treated cell lysates. Negative control wells (0% activity) contained Gash-stimulated, reference inhibitor-treated cell lysates. IC50 values were calculated by nonlinear regression analysis using a 4-parameter logistic curve fit in ActivityBase XE (IDBS).

In experiment [3] the target is KDR (Homo sapiens (Human), UniProt P35968). The experiment can be described thus: KDR autophosphorylation ELISA in HUVEC cells. The conditions noted are these: cellular, VEGF165 stimulated. As to the method: Human umbilical vein endothelial cells or HUVEC (Lonza #C2519A) were seeded at 2×10^4 cells/well onto 96-well plates (Corning #3904), in EGM-2 growth medium (Lonza #CC-3162) containing 1% Penicillin Streptomycin (Thermo Fisher #15140-122). HUVEC cells were incubated at 37° C., 5% CO2 for 24 h and then starved for 24 h in serum-free EBM-2 basal medium (Lonza #CC-3156) containing 1% Penicillin Streptomycin. Test compounds were serially diluted to produce an 8-point dose curve in fresh serum-free medium to a final concentration of 0.3% DMSO (vehicle) and added to the cells and incubated for 1 h. Cells were then stimulated with 100 ng/mL recombinant human VEGF165 (R&D Systems #293-VE-500) for 5 min, washed with cold PBS, and immediately lysed with 130 μL of cold 1× lysis buffer [20 mM Tris, 137 mM sodium chloride, 2 mM EDTA, 10% glycerol, 1% NP-40 alternative, 1 mM activated sodium orthovanadate, 1 mM PefaBloc SC (Sigma-Aldrich #11429868001), protease/phosphatase inhibitor tablet (Thermo Fisher #A32959)]. Lysates were collected and 100 μL/well added into the human phospho-KDR DuoSet IC ELISA (R&D Systems #DYC1766-2). Assay was performed according to manufacturer's instructions and sample phospho-KDR concentrations were extrapolated using human phospho-KDR control (R&D Systems #841421) as a standard. Positive control wells (100% activity) contained VEGF165-stimulated, DMSO-treated cell lysates. Negative control wells (0% activity) contained non-stimulated cell lysates. IC50 values were calculated by nonlinear regression analysis using a 4-parameter logistic curve fit in ActivityBase XE (IDBS).
KDR, sequence (P35968 20-1356): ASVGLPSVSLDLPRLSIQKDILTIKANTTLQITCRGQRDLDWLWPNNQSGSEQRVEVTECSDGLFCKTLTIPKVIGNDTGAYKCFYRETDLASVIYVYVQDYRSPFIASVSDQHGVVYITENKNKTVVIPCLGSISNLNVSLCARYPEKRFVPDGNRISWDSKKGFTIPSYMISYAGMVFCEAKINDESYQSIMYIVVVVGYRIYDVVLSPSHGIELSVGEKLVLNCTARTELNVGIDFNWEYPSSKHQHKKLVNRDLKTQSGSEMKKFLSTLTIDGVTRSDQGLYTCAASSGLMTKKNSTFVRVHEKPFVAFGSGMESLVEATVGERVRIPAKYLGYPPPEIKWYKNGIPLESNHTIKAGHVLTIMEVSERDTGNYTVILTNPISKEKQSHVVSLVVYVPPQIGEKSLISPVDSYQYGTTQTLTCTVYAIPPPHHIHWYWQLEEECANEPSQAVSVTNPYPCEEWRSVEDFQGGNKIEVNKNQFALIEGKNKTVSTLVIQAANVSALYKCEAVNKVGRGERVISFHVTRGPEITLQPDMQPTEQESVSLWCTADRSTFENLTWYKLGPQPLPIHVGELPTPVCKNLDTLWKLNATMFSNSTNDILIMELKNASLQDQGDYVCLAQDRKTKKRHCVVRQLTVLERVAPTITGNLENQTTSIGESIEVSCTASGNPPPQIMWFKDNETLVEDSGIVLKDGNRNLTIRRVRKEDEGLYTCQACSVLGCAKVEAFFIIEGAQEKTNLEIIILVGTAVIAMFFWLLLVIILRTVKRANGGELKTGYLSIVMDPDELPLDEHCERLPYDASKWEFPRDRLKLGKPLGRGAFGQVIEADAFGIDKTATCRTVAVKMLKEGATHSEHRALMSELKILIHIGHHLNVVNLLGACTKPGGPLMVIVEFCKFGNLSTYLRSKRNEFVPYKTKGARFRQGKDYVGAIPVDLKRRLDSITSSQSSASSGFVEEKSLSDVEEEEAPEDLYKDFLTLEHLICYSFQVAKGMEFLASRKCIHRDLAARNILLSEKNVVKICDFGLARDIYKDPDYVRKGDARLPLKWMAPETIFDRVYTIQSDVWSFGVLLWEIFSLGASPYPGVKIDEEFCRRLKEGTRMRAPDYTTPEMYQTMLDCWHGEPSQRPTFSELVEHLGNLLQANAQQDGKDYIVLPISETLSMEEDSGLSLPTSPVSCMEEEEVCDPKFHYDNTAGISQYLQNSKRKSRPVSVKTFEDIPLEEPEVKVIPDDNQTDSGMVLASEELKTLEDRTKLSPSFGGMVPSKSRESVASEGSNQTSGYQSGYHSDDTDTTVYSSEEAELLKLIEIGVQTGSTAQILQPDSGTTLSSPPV

Molecules are shown by their SMILES. Bounds are passed on as bounds.

AXL, sequence (P30530 26-894): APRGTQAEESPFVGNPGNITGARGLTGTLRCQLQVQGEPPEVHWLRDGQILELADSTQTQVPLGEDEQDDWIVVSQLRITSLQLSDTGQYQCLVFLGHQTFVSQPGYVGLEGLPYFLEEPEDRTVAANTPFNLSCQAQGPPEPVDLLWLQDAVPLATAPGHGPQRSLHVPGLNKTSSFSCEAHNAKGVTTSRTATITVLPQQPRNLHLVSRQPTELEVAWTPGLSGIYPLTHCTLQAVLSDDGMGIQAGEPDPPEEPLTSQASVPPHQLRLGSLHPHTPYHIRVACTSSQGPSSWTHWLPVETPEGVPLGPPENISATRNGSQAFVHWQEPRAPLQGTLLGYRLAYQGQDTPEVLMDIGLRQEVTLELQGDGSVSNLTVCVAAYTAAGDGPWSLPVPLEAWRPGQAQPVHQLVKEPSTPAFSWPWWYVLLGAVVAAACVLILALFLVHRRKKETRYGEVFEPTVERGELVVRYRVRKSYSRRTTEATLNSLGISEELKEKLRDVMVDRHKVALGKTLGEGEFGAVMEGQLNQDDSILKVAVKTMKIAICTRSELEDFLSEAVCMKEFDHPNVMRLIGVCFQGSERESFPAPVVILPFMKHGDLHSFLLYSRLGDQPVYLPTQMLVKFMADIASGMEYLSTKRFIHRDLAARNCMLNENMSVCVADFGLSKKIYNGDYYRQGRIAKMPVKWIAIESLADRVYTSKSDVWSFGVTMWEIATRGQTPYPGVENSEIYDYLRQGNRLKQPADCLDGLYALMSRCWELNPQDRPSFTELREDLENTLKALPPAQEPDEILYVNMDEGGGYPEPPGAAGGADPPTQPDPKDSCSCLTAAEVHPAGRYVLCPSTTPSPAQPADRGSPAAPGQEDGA

`CNc1cc2nccc(Oc3ccc(NC(=O)C4(C(=O)Nc5ccc(F)cc5)CC4)cc3)c2cc1C(N)=O` [Compound 82, 1-N-[4-[6-Carbamoyl-7-(methylamino)quinolin-4-yl]oxyphenyl]-1-N′-(4-fluorophenyl)cyclopropane-1,1-dicarboxamide]: the IC50 in experiment [1], in experiment [2] and in experiment [3] was 10 to 100 nM in each case.

With `CNC(=O)c1cc2c(Oc3ccc(NC(=O)C4(C(=O)N(C)c5ccc(F)cc5)CC4)cc3F)ccnc2cc1OC` [Compound 262, 1-N-[3-Fluoro-4-[7-methoxy-6-(methylcarbamoyl)quinolin-4-yl]oxyphenyl]-1-N′-(4-fluorophenyl)-1-N′-methylcyclopropane-1,1-dicarboxamide], the IC50 in experiment [1], in experiment [2] and in experiment [3] was > 300 nM each time.

Take `NC(=O)c1cc2c(Oc3ccc(NC(=O)C4(C(=O)Nc5ccc(F)cc5)CC4)cc3)ccnc2cc1OCCO` [Compound 106, 1-N-[4-[6-Carbamoyl-7-(2-hydroxyethoxy)quinolin-4-yl]oxyphenyl]-1-N′-(4-fluorophenyl)cyclopropane-1,1-dicarboxamide]: the IC50 in experiment [1] is 10 to 100 nM; in experiment [2], ≤ 10 nM; in experiment [3] it was ≤ 10 nM.

For the molecule `CNC(=O)c1cc2c(Oc3ccc(NC(=O)C4(C(=O)Nc5ccc(F)cc5)CC4)cc3)ccnc2cc1NC` [Compound 83, 1-N′-(4-Fluorophenyl)-1-N-[4-[7-(methylamino)-6-(methylcarbamoyl)quinolin-4-yl]oxyphenyl]cyclopropane-1,1-dicarboxamide], the IC50 in experiment [1], in experiment [2] and in experiment [3] was 10 to 100 nM each time.

Regarding `O=C(NOC[C@@H](O)CO)c1ccc2c(Oc3ccc(NC(=O)C4(C(=O)Nc5ccc(F)cc5)CC4)cc3)ccnc2c1` [Compound 170, 1-N-[4-[7-[[(2S)-2,3-Dihydroxypropoxy]carbamoyl]quinolin-4-yl]oxyphenyl]-1-N′-(4-fluorophenyl)cyclopropane-1,1-dicarboxamide], the IC50 in experiment [1] is > 300 nM; in experiment [2] it was 100 to 300 nM; in experiment [3] it was 100 to 300 nM.

In the case of `CNC(=O)c1cc2c(Oc3ccc(NC(=O)C4(C(=O)N(C)c5ccc(F)cc5)CC4)cc3)ccnc2cc1OC` [Compound 263, 1-N′-(4-Fluorophenyl)-1-N-[4-[7-methoxy-6-(methylcarbamoyl)quinolin-4-yl]oxyphenyl]-1-N′-methylcyclopropane-1,1-dicarboxamide], the IC50 in experiment [1], in experiment [2] and in experiment [3] was > 300 nM each time.

Take `O=C(NOC1COC1)c1ccc2c(Oc3ccc(NC(=O)C4(C(=O)Nc5ccc(F)cc5)CC4)cc3)ccnc2c1` [Compound 167, 1-N′-(4-Fluorophenyl)-1-N-[4-[7-(oxetan-3-yloxycarbamoyl)quinolin-4-yl]oxyphenyl]cyclopropane-1,1-dicarboxamide]: the IC50 in experiment [1], in experiment [2] and in experiment [3] was 100 to 300 nM each time.

For `CNC(=O)c1cc2c(Oc3ccc(NC(=O)C4(C(=O)Nc5c(C)cc(F)cc5C)CC4)cc3F)ccnc2cc1OC` [Compound 267, 1-N′-(4-Fluoro-2,6-dimethylphenyl)-1-N-[3-fluoro-4-[7-methoxy-6-(methylcarbamoyl)quinolin-4-yl]oxyphenyl]cyclopropane-1,1-dicarboxamide], the figures for the IC50 in experiment [1], in experiment [2] and in experiment [3] were 100 to 300 nM, 10 to 100 nM and 100 to 300 nM, respectively.

Take `O=C(Nc1ccc(F)cc1)C1(C(=O)Nc2ccc(Oc3ccnc4ccc(-c5ccn[nH]5)cc34)cc2)CC1` [Compound 204, 1-N′-(4-Fluorophenyl)-1-N-[4-[6-(1H-pyrazol-5-yl)quinolin-4-yl]oxyphenyl]cyclopropane-1,1-dicarboxamide]: the IC50 in experiment [1], in experiment [2] and in experiment [3] was 10 to 100 nM each time.

Regarding `CO/N=C(\C)c1ccc2c(Oc3ccc(NC(=O)C4(C(=O)Nc5ccc(F)cc5)CC4)cc3)ccnc2c1` [Compound 256, 1-N′-(4-Fluorophenyl)-1-N-[4-[7-[(E)-N-methoxy-C-methylcarbonimidoyl]quinolin-4-yl]oxyphenyl]cyclopropane-1,1-dicarboxamide], the IC50 in experiment [1], in experiment [2] and in experiment [3] was 100 to 300 nM each time.

On to `CC1NC(=O)c2cc3c(Oc4ccc(NC(=O)C5(C(=O)Nc6ccc(F)cc6)CC5)cc4)ccnc3cc2O1` (stereo not drawn) [Compound 92, 1-N′-(4-Fluorophenyl)-1-N-[4-[(2-methyl-4-oxo-2,3-dihydropyrido[3,2-g][1,3]benzoxazin-6-yl)oxy]phenyl]cyclopropane-1,1-dicarboxamide], for which the figures for the IC50 in experiment [1], in experiment [2] and in experiment [3] were 100 to 300 nM, 10 to 100 nM and 100 to 300 nM, respectively.

For `NS(=O)(=O)c1ccc2c(Oc3ccc(NC(=O)C4(C(=O)Nc5ccc(F)cc5)CC4)cc3)ccnc2c1` [Compound 254, 1-N′-(4-Fluorophenyl)-1-N-[4-(7-sulfamoylquinolin-4-yl)oxyphenyl]cyclopropane-1,1-dicarboxamide], the IC50 was 100 to 300 nM in experiment [1], 100 to 300 nM in experiment [2] and > 300 nM in experiment [3].

Turning to `CNc1cc2nccc(Oc3ccc(NC(=O)C4(C(=O)Nc5ccc(F)cc5)CC4)cc3)c2cc1C(=O)OC` [Compound 84, Methyl 4-[4-[[1-[(4-fluorophenyl)carbamoyl]cyclopropane-carbonyl]amino]phenoxy]-7-(methylamino)quinoline-6-carboxylate], the IC50 in experiment [1] was 10 to 100 nM; in experiment [2], ≤ 10 nM; in experiment [3], ≤ 10 nM.

Regarding `Nc1cc2nccc(Oc3ccc(NC(=O)C4(C(=O)Nc5ccc(F)cc5)CC4)cc3)c2cc1C(=O)O` [Compound 89, 7-Amino-4-[4-[[1-[(4-fluorophenyl)carbamoyl]cyclopropane-carbonyl]amino]phenoxy]quinoline-6-carboxylic Acid], the IC50 in experiment [1], in experiment [2] and in experiment [3] was > 300 nM each time.

For `COCCNc1cc2nccc(Oc3ccc(NC(=O)C4(C(=O)Nc5ccc(F)cc5)CC4)cc3)c2cc1C(N)=O` [Compound 70, 1-N-[4-[6-Carbamoyl-7-(2-methoxyethylamino)quinolin-4-yl]oxyphenyl]-1-N′-(4-fluorophenyl)cyclopropane-1,1-dicarboxamide], the IC50 in experiment [1], in experiment [2] and in experiment [3] was 10 to 100 nM in each case.

The record behind these values is patent publication US11542259B2, “Compounds for the treatment of kinase-dependent disorders” (Exelixis, Inc., priority 2018, dated 2023).
